Results published in ChEMBL document CHEMBL4138043, “Quinoides and VEGFR2 TKIs influence the fate of hepatocellular carcinoma and its cancer stem cells” (Medchemcomm, 2017).

How the values were obtained:
Huh-7 [1] = assay: Cytotoxicity against human HuH7 cells assessed as growth inhibition after 72 hrs by SRB assay; format: functional, cell-based
Hep 3B2 [2] = assay: Cytotoxicity against human Hep3B cells assessed as growth inhibition after 72 hrs by SRB assay; format: functional, cell-based
Mahlavu [3] = assay: Cytotoxicity against human Mahlavu cells assessed as growth inhibition after 72 hrs by SRB assay; format: functional, cell-based
SNU-475 [4] = assay: Cytotoxicity against human SNU475 cells assessed as growth inhibition after 72 hrs by SRB assay; format: functional, cell-based
Huh-7 [5] = assay: Disruption of cancer stem cell subpopulation of human HuH7 cells assessed as aggressiveness factor at IC100 after 72 hrs by flow cytometric method; format: functional
Hep 3B2 [6] = assay: Disruption of cancer stem cell subpopulation of human Hep3B cells assessed as aggressiveness factor at IC100 after 72 hrs by flow cytometric method; format: functional
Mahlavu [7] = assay: Disruption of cancer stem cell subpopulation of human Mahlavu cells assessed as aggressiveness factor at IC100 after 72 hrs by flow cytometric method; format: functional
SNU-475 [8] = assay: Disruption of cancer stem cell subpopulation of human SNU475 cells assessed as aggressiveness factor at IC100 after 72 hrs by flow cytometric method; format: functional
Huh-7 [9] = assay: Disruption of cancer stem cell subpopulation of human HuH7 cells assessed as effect on CD133 levels at IC100 after 72 hrs by flow cytometric method (reference value: 0 to 0.6%); format: functional
Huh-7 [10] = assay: Disruption of cancer stem cell subpopulation of human HuH7 cells assessed as effect on EpCAM levels at IC100 after 72 hrs by flow cytometric method (reference value: 13.7 to 33%); format: functional
Hep 3B2 [11] = assay: Disruption of cancer stem cell subpopulation of human Hep3B cells assessed as effect on CD133 levels at IC100 after 72 hrs by flow cytometric method (reference value: 0 to 0.6%); format: functional
Hep 3B2 [12] = assay: Disruption of cancer stem cell subpopulation of human Hep3B cells assessed as effect on EpCAM levels at IC100 after 72 hrs by flow cytometric method (reference value: 0 to 0.6%); format: functional
Mahlavu [13] = assay: Disruption of cancer stem cell subpopulation of human Mahlavu cells assessed as effect on CD90 levels at IC100 after 72 hrs by flow cytometric method (reference value: 0.6%); format: functional
SNU-475 [14] = assay: Disruption of cancer stem cell subpopulation of human SNU475 cells assessed as effect on CD90 levels at IC100 after 72 hrs by flow cytometric method (reference value: 0.2%); format: functional
[15] = molecular target: Vascular endothelial growth factor receptor 2 (Homo sapiens, UniProt P35968); assay: Inhibition of N-terminal GST-fused human VEGFR2 C-terminal fragment expressed in Sf9 insect cells using poly(Glu:Tyr) 4:1 as substrate; format: cell-based
Sequence of Vascular endothelial growth factor receptor 2 (P35968 whole entry, the tested form may be a part): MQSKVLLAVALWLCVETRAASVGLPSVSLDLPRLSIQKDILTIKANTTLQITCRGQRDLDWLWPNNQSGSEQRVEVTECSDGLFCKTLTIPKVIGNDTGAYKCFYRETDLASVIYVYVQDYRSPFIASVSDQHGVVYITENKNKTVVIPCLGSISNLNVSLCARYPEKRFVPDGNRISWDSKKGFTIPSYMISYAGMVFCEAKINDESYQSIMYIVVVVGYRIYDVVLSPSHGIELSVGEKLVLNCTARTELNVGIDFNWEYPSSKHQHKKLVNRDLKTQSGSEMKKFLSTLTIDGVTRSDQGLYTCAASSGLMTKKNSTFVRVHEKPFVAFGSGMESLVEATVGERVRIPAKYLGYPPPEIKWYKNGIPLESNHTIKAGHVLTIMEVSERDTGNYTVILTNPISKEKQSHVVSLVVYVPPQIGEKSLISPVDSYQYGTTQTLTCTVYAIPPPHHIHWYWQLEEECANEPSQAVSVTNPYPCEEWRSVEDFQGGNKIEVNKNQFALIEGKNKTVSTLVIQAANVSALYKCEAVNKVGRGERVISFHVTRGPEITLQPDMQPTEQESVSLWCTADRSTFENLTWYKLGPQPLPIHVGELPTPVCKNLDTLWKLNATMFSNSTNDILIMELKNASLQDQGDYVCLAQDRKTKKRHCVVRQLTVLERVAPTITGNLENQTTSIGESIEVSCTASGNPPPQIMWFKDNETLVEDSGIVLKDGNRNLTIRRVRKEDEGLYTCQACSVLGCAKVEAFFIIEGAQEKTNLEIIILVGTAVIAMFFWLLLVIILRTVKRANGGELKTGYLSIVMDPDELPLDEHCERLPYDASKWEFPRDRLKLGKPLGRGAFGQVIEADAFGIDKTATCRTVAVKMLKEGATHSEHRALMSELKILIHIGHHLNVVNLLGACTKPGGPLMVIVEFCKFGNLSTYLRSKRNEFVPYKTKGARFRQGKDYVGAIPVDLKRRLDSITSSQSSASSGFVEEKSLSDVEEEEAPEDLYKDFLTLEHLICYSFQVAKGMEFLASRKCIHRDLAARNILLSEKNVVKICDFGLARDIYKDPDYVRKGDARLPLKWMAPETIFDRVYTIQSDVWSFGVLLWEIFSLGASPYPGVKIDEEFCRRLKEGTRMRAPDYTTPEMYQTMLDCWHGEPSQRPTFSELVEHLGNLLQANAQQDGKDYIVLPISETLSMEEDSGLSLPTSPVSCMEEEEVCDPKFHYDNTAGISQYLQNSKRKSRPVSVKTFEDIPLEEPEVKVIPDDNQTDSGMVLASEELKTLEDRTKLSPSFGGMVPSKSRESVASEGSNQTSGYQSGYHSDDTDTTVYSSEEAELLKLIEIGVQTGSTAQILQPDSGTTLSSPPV

[16] = molecular target: Focal adhesion kinase 1 (Homo sapiens) (UniProt Q05397); assay: Inhibition of FAK phosphorylation at Y397 in human bone marrow mesenchymal stem cells at 1 uM after 1 hr by immunoblot method relative to control
Sequence of Focal adhesion kinase 1 (Homo sapiens) (Q05397 2-1052 limits assumed): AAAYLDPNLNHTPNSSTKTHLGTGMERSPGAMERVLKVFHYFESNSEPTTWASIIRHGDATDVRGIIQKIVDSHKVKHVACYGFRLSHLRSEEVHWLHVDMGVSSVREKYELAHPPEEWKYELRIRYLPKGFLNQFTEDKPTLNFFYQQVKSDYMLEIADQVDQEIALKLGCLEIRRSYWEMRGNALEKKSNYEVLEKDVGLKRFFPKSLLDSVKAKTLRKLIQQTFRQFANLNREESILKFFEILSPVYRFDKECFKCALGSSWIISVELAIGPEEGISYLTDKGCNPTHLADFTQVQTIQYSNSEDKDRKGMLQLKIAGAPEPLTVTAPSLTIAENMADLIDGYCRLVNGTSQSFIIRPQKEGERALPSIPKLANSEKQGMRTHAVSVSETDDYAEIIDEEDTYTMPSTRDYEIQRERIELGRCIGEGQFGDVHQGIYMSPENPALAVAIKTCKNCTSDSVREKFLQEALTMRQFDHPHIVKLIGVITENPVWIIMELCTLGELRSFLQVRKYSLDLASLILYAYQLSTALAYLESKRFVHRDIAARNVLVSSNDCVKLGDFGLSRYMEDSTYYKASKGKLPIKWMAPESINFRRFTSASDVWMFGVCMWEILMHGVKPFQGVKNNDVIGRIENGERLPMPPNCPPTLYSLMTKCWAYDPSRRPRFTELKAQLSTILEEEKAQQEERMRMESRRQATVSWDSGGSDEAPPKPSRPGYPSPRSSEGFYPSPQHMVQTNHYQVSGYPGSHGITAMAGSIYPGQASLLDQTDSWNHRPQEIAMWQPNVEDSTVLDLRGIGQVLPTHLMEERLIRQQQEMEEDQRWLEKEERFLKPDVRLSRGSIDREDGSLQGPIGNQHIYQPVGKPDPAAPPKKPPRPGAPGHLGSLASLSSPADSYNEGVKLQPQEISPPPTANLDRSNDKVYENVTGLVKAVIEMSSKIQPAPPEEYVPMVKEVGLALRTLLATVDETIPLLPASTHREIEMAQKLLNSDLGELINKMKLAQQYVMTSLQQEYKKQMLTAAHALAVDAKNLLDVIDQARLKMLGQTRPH

[17] = molecular target: Focal adhesion kinase 1 (Homo sapiens) (UniProt Q05397); assay: Inhibition of FAK phosphorylation at Y397 in human bone marrow mesenchymal stem cells at 5 uM after 1 hr by immunoblot method relative to control
[18] = Homo sapiens, Huh-7, 72 h, read-out: IC50
[19] = Homo sapiens, Hep3B, 72 h, read-out: IC50
[20] = Homo sapiens, Mahlavu, 72 h, read-out: IC50
[21] = Homo sapiens, SNU-475, 72 h, read-out: IC50

Row | SMILES | IC50 (Huh-7 [1]; [18]) | IC50 (Hep 3B2 [2]; [19]) | IC50 (Mahlavu [3]; [20]) | IC50 (SNU-475 [4]; [21]) | fold change (FC) (Huh-7 [5]) | fold change (FC) (Hep 3B2 [6]) | fold change (FC) (Mahlavu [7]) | fold change (FC) (SNU-475 [8]) | Activity (Huh-7 [9]) | Activity (Huh-7 [10]) | Activity (Hep 3B2 [11]) | Activity (Hep 3B2 [12]) | Activity (Mahlavu [13]) | Activity (SNU-475 [14]) | also measured
1 | COC1=CC(=O)C(C)=C([S+]([O-])c2ccc(C)cc2)C1=O (racemic) | 5.5 µM | 4.3 µM | 11.6 µM | 6.1 µM | 1.3 | 1.1 | 2.2 | 2 | 0.8% | 41.3% | 0% | 84.9% | 1.3% | 0.4% | –
2 | CCS(=O)(=O)c1ccc(OC)c(Nc2nc(-c3cccc(-c4ccccn4)c3)co2)c1 | 0.4 µM | 0.9 µM | 1.1 µM | – | 1.7 | 2.6 | – | – | 0.1% | 23.7% | – | – | – | – | IC50 [15]: 564 µM
3 | COC1=CC(=O)C([S@@+]([O-])c2ccc(C)cc2)=CC1=O | 10.6 µM | 9.9 µM | 11.3 µM | 9 µM | 0.9 | 1.1 | 2.3 | 2 | 0.3% | 29.1% | 0% | 84.7% | 1.4% | 0.4% | –
4 | Cc1ccc([S@+]([O-])C2=C(Cl)C(=O)C=CC2=O)cc1 | – | – | – | – | 0.7 | 1 | 0.8 | 1.5 | 0.2% | 24.7% | 0% | 76% | 0.5% | 0.3% | IC50 (Huh-7 [1]; huh-7): Not Active; IC50 (Hep 3B2 [2]; hep 3b2): Not Active; IC50 (Mahlavu [3]; mahlavu): Not Active; IC50 (SNU-475 [4]; snu-475): Not Active
5 | CCS(=O)(=O)c1ccc(OC)c(Nc2ncc(-c3cccc(-c4ccccn4)c3)o2)c1 | 1.5 µM | 0.7 µM | 1.2 µM | – | 1.7 | 1.7 | – | – | 0.1% | 23.9% | – | – | – | – | –
6 | COC1=CC(=O)C(C)=C([S@@+]([O-])c2ccc(C)cc2)C1=O | 8 µM | 5.5 µM | 14.5 µM | 10.5 µM | 1.1 | 1.1 | 1.3 | 0.5 | 0.5% | 35.8% | 0% | 87.8% | 0.8% | 0.1% | –
7 | C[C@H](NC(=O)Cc1cc(F)cc(F)c1)C(=O)N[C@H](C(=O)OC(C)(C)C)c1ccccc1 | 5 µM | 5 µM | 5 µM | 0.6 µM | 0.8 | 0.7 | 0.2 | 0.5 | – | 10.2 - 26.7% | 0% | 68.8% | 0.1% | 0.1% | –
8 | CCS(=O)(=O)c1ccc(OC)c(Nc2ncc(-c3cc(-c4ccccn4)cc(-c4ccccn4)c3)o2)c1 | 2.8 µM | 2 µM | 3 µM | – | 2.3 | 2.9 | – | – | 0.4% | 31.6% | – | – | – | – | –
9 | CNC(=O)c1cc(Oc2ccc(NC(=O)Nc3ccc(Cl)c(C(F)(F)F)c3)cc2)ccn1.Cc1ccc(S(=O)(=O)O)cc1 [SORAFENIB TOSYLATE] | 1.6 µM | 1.5 µM | 0.7 µM | – | – | – | – | – | 0.2% | 31.8% | – | – | – | – | –
10 | CCOC1=CC(=O)C(C)=C([S@@+]([O-])c2ccc(C)cc2)C1=O | 7 µM | 12 µM | 18.3 µM | 5.5 µM | 1.2 | 1 | 1.7 | 0.5 | 0.3% | 40.6% | 0% | 80.1% | 1% | 0.1% | –
11 | CCS(=O)(=O)c1ccc(OC)c(Nc2ncc(-c3cccc(-c4cc[nH]c4)c3)o2)c1 | 1.7 µM | 2.1 µM | 0.8 µM | – | 2.3 | 2.1 | – | – | 0.9% | 32.1% | – | – | – | – | IC50 [15]: 0.018 µM
12 | CO[C@H]1[C@@H](OC)C[C@H](C)[C@@H](OC)C2=CC(=O)C=C(NC(=O)/C(C)=C/C=C\[C@H](OC)[C@@H](OC(N)=O)/C(C)=C/[C@@H]1C)C2=O | – | – | – | – | – | – | – | – | – | – | – | – | – | – | inhibition [16]: 61%; inhibition [17]: 78%
13 | Cc1ccc([S@+]([O-])C2=CC(=O)C=CC2=O)cc1 | 20 µM | 17.4 µM | 31.3 µM | 0.3 µM | 0.9 | 1.1 | 0.3 | 0 | 0.2% | 30.6% | 0% | 81.4% | 0.2% | 0% | –
